Data published in patent publication US12590062B2, “PD-1/PD-L1 inhibitors” (Gilead Sciences, Inc., priority 2017, dated 2026).

How the values were obtained:
[1] = biological target: T1, interaction between the recombinant extracellular domain (ECD) of PD-1 and native cell-bound PD-L1 (Homo sapiens, UniProt Q9NZQ7); experiment: CHO/PD-L1 cell capture assay; assay type: cell-based; conditions: CHO cells overexpressing PD-L1, pre-incubated 1 hr with compound, captured on biotinylated Fc-PD-1 coated plates, 75 min at room temperature
T1 construct: expressed in transfected cells
Protocol: EC50-CHO/PD-L1-Capture Assay:
Compounds were tested in a cell capture assay to determine if they can specifically block the interaction between the recombinant extracellular domain (ECD) of PD-1 and native cell-bound PD-L1. Binding affinity of stable CHO cells overexpressing PD-L1 with its cognate recombinant ligand coated on plates was measured by counting the number of ‘captured’ cells. High-capacity streptavidin- coated plates were incubated with biotylated-Fc-PD-1 for 2 hours in PBS. Unbound ligand was washed out. CHO-PD-L1 cells (resuspended in PBS pH 7.4, 0.5 mM EDTA, and 2% bovine serum albumin) were pre-incubated for 1 hr with compound, dispensed into each PD-1 ECD coated well and then incubated for 75 min at room temperature. To stop the capture assay, a fixative/staining solution (final concentrations are 1.3% glutaraldehyde and 1.67 μM Draq5) was gently added to the cells and incubated for 2 hrs at room temperature. Unbound cells were then washed out and ‘captured’ cells were enumerated using a high-content microscopy system. EC50 values were calculated from the fit of the dose-response curves to a four-parameter equation. Representative data are shown below in Table 2.

PD-1/PD-L1 interaction = biological target: T2, PD-1/PD-L1 interaction (Homo sapiens, UniProt Q9NZQ7); experiment: PD-1/PD-L1 NFAT reporter co-culture assay; assay type: cell-based; conditions: Jurkat PD-1 NFAT-luciferase cells co-cultured with aAPC-PD-L1 CHO cells, 6 hrs at 37° C.; read-out: EC50 NFAT Luciferase
T2 construct: expressed in transfected cells; host or cells: CHO cells (aAPC-PD-L1) co-cultured with Jurkat cells overexpressing PD-1 and an NFAT-luciferase reporter
Summary of the method: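 First, CHO cells displaying anti-CD3 antibody and PD-L1 were plated overnight. Next, compound-treated PD-1 Jurkat NFAT-luciferase reporter cells in 2% FBS RPMI were added for 6 h at 37 °C. Finally, ONE-Glo luminescence was read and EC50 values fitted with a four-parameter equation.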

PD-1/PD-L1 = PD-1/PD-L1 (Homo sapiens, UniProt Q9NZQ7); experiment: PD-1/PD-L1 biochemical protein-protein interaction assay (ALPHA); assay type: binding; conditions: 0.3 nM His tagged PD-L1, 2.5 nM biotinylated Fc-PD-1, 60 minutes at 25° C., read-out: IC50 PD-L1-PD-1 Alpha IC50-mono PD-L1-fcP-D1
Summary of the method: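 Bead proximity read-out: compound-driven loss of ALPHA signal between anti-His acceptor and streptavidin donor beads (20 μg/mL acceptor). Proteins: 0.3 nM His-PD-L1, 2.5 nM biotin-Fc-PD-1, final. 60 min, 25° C, Hepes pH 7.4 buffer. IC50 via four-parameter dose-response fit.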

T2 sequence (Q9NZQ7 19-290): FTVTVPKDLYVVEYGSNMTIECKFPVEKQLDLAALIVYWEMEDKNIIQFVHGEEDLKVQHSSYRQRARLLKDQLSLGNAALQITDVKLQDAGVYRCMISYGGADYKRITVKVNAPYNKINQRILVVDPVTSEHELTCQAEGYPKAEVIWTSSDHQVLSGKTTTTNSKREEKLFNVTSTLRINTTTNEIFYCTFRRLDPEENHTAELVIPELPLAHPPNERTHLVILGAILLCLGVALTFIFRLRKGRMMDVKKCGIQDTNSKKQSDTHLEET
T1 sequence (Q9NZQ7 19-290): as above
Sequence of PD-1/PD-L1 (Q9NZQ7 19-238 limits assumed): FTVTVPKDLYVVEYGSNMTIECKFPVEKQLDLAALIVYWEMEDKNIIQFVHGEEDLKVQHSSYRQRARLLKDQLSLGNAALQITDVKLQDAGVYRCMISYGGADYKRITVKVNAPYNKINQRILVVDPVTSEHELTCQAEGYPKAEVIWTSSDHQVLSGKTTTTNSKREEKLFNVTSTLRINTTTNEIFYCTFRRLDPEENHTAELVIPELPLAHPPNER

Row | Compound | EC50 [1] [nM] | EC50 (PD-1/PD-L1 interaction) [nM] | IC50 (PD-1/PD-L1) [nM]
1 | COc1nc(O[C@H]2CCc3c(-c4cccc5c4CC[C@@H]5Oc4ccc(CNC[C@@H](O)CC(=O)O)c(OC)n4)cccc32)ccc1CNC[C@@H](O)CC(=O)O [Example 11, (3S,3′S)-4,4′-((((((1S,1′S)-2,2′,3,3′-tetrahydro-1H,1′H-[4,4′-biindene]-1,1′-diyl)bis(oxy))bis(2-methoxypyridine-6,3-diyl))bis(methylene))bis(azanediyl))bis(3-hydroxybutanoic acid)] | 170 | 1100 | 0.4
2 | Cc1c(COc2cc(OCc3cncc(C#N)c3)c(CNCCO)cc2Cl)cccc1-c1cccc(COc2cc(OCc3cncc(C#N)c3)c(CNCCO)cc2Cl)c1 [Example 20, 5,5′-((((((2-methyl-[1,1′-biphenyl]-3,3′-diyl)bis(methylene))bis(oxy))bis(4-chloro-6-(((2-hydroxyethyl)amino)methyl)-3,1-phenylene))bis(oxy))bis(methylene))dinicotinonitrile] | 752 | 1200 | 12.6
3 | COc1nc(OCc2cccc(-c3cccc(COc4nc(OC)c(CNC[C@@H](O)CC(=O)O)cc4Cl)c3C)c2C)c(Cl)cc1CNC[C@@H](O)CC(=O)O [Example 29, (3S,3′S)-4,4′-((((((2,2′-dimethyl-[1,1′-biphenyl]-3,3′-diyl)bis(methylene))bis(oxy))bis(5-chloro-2-methoxypyridine-6,3-diyl))bis(methylene))bis(azanediyl))bis(3-hydroxybutanoic acid)] | 218 | 244 | 0.8
4 | COc1nc(OCc2cccc(-c3cccc(COc4nc(OC)c(CN[C@@H]5CC[C@H](C(=O)O)C5)cc4Cl)c3C)c2C)c(Cl)cc1CN[C@@H]1CC[C@H](C(=O)O)C1 [Example 185, (1S,1′S,3R,3′R)-3,3′-((((((2,2′-dimethyl-[1,1′-biphenyl]-3,3′-diyl)bis(methylene))bis(oxy))bis(5-chloro-2-methoxypyridine-6,3-diyl))bis(methylene))bis(azanediyl))bis(cyclopentane-1-carboxylic acid)] | 277 | 195 | –
5 | C[C@](CO)(NCc1cc(Br)c(OCc2cccc(-c3cccc(COc4nc(OCc5cncc(C#N)c5)c(CN[C@](C)(CO)C(=O)O)cc4Br)c3Cl)c2Cl)nc1OCc1cncc(C#N)c1)C(=O)O [Example 198, (2R,2′R)-2,2′-((((((2,2′-Dichloro-[1,1′-biphenyl]-3,3′-diyl)bis(methylene))bis(oxy))bis(5-bromo-2-((5-cyanopyridin-3-yl)methoxy)pyridine-6,3-diyl))bis(methylene))bis(azanediyl))bis(3-hydroxy-2-methylpropanoic acid)] | 101 | 69 | –
6 | COc1cc(OCc2cccc(-c3cccc(COc4cc(OCc5cncc(C#N)c5)c(CNC[C@H](O)C(=O)O)cc4Cl)c3C)c2C)c(Cl)cc1CNC[C@H](O)C(=O)O [Example 216, (S)-3-((4-((3′-((4-((((S)-2-carboxy-2-hydroxyethyl)amino)methyl)-2-chloro-5-((5-cyanopyridin-3-yl)methoxy)phenoxy)methyl)-2,2′-dimethyl-[1,1′-biphenyl]-3-yl)methoxy)-5-chloro-2-methoxybenzyl)amino)-2-hydroxypropanoic acid] | 206 | 514 | –
7 | COc1cc(OCc2cccc(-c3cccc(COc4cc(OCc5cncc(C#N)c5)c(CNCC(=O)O)cc4Cl)c3C)c2C)c(Cl)cc1CNCC(=O)O [Example 217, (4-((3′-((4-(((carboxymethyl)amino)methyl)-2-chloro-5-((5-cyanopyridin-3-yl)methoxy)phenoxy)methyl)-2,2′-dimethyl-[1,1′-biphenyl]-3-yl)methoxy)-5-chloro-2-methoxybenzyl)glycine] | 71.6 | 589 | –
8 | COc1nc(OCc2cccc(-c3cccc(COc4nc(OC)c(CNC5(C#N)CCC5)cc4Cl)c3C)c2C)c(Cl)cc1CNC1(C#N)CCC1 [Example 231, 1,1′-((((((2,2′-dimethyl-[1,1′-biphenyl]-3,3′-diyl)bis(methylene))bis(oxy))bis(5-chloro-2-methoxypyridine-6,3-diyl))bis(methylene))bis(azanediyl))bis(cyclobutane-1-carbonitrile)] | 277 | 962 | –
9 | Cc1c(COc2cc(OCc3cncc(C#N)c3)c(CNC[C@@H](O)CC(=O)O)cc2Cl)cccc1-c1cccc(-c2ccc(OCCNC[C@@H](O)CC(=O)O)c(Cl)c2)c1C [Example 288, (S)-4-((4-((4″-(2-(((S)-3-carboxy-2-hydroxypropyl)amino)ethoxy)-3″-chloro-2,2′-dimethyl-[1,1′:3′,1″-terphenyl]-3-yl)methoxy)-5-chloro-2-((5-cyanopyridin-3-yl)methoxy)benzyl)amino)-3-hydroxybutanoic acid] | 10.3 | 57 | –

Continued by falling EC50 [1], values first:

Row | EC50 [1] [nM] | EC50 (PD-1/PD-L1 interaction) [nM] | IC50 (PD-1/PD-L1) [nM] | Compound
10 | 457 | 4800 | 2.2 | COc1nc(OC2CCc3c(-c4cccc5c4CCC5Oc4ccc(CNC[C@@H](O)CC(=O)O)c(OC)n4)cccc32)ccc1CNC[C@@H](O)CC(=O)O (stereo partly drawn) [Example 13, (3S,3′S)-4,4′-(((((2,2′,3,3′-tetrahydro-1H,1′H-[4,4′-biindene]-1,1′-diyl)bis(oxy))bis(2-methoxypyridine-6,3-diyl))bis(methylene))bis(azanediyl))bis(3-hydroxybutanoic acid)]
11 | 132 | 444 | – | COc1nc(OCc2cccc(-c3cccc(COc4nc(OC)c(CN5CCC[C@@H]5C(=O)O)cc4Cl)c3C)c2C)c(Cl)cc1CN1CCC[C@@H]1C(=O)O [Example 234, (2′R)-(((((2,2′-dimethyl-[1,1′-biphenyl]-3,3′-diyl)bis(methylene))bis(oxy))bis(5-chloro-2-methoxypyridine-6,3-diyl))bis(methylene))di-D-proline]
12 | 102 | 340 | 0.5 | COc1nc(OC2CCc3c(-c4cccc5c4CCC5Oc4nc(OC)c(CNC[C@@H](O)CC(=O)O)cc4Cl)cccc32)c(Cl)cc1CNC[C@@H](O)CC(=O)O (stereo partly drawn) [Example 9, (3S,3′S)-4,4′-(((((2,2′,3,3′-tetrahydro-1H,1′H-[4,4′-biindene]-1,1′-diyl)bis(oxy))bis(5-chloro-2-methoxypyridine-6,3-diyl))bis(methylene))bis(azanediyl))bis(3-hydroxybutanoic acid)]
13 | 42.1 | 127 | 0.3 | Cc1c(COc2nc(OCc3cncc(C#N)c3)c(CNC[C@H](O)CC(=O)O)cc2Cl)cccc1-c1cccc(COc2nc(OCc3cncc(C#N)c3)c(CNC[C@H](O)CC(=O)O)cc2Cl)c1C [Example 32, (3R,3′R)-4,4′-((((((2,2′-dimethyl-[1,1′-biphenyl]-3,3′-diyl)bis(methylene))bis(oxy))bis(5-chloro-2-((5-cyanopyridin-3-yl)methoxy)pyridine-6,3-diyl))bis(methylene))bis(azanediyl))bis(3-hydroxybutanoic acid)]
14 | 38.1 | 29 | 0.1 | COc1nc(O[C@H]2CCc3c(-c4cccc5c4CC[C@@H]5Oc4nc(OC)c(CN[C@@](C)(CO)C(=O)O)cc4Br)cccc32)c(Br)cc1CN[C@@](C)(CO)C(=O)O [Example 5, (2S,2′S)-2,2′-((((((1S,1′S)-2,2′,3,3′-tetrahydro-1H,1′H-[4,4′-biindene]-1,1′-diyl)bis(oxy))bis(5-bromo-2-methoxypyridine-6,3-diyl))bis(methylene))bis(azanediyl))bis(3-hydroxy-2-methylpropanoic acid)]
